Experimental data: patent US20230131376A1, “ADJUVANT-ANTIBIOTIC COMBINATION AGAINST GRAM-NEGATIVE BACTERIA” (University of Notre Dame du Lac, priority 2020, published 2023)
“Also recorded” adds a separate entry of the source. Each block holds one molecule with its values, some of them ahead of it.

Columns and labels:
[1] = test system: mcr-1 plasmid containing E. coli, K. pneumoniae, and A. baumannii; test: Colistin potentiation stated for all three mcr-1 strains together
[2] = test system: several MDR Gram-negative bacterial strains; settings: cited from earlier work
[3] = test system: K. pneumoniae B9; test: Colistin potentiation, chromosomally colistin resistant K. pneumoniae B9; assay type: cell-based
Description: (§1) Broth microdilution method for antibiotic potentiation.

[4] = test system: K. pneumoniae C3; test: Colistin potentiation, chromosomally colistin resistant K. pneumoniae C3; assay type: cell-based
Description: as §1

[5] = test system: A. baumannii 3941; test: Colistin potentiation, chromosomally colistin resistant A. baumannii 3941; assay type: cell-based
Description: as §1

[6] = test system: A. baumannii 4106; test: Colistin potentiation, chromosomally colistin resistant A. baumannii 4106; assay type: cell-based
Description: as §1

[7] = test system: 4T1 cells; test: MTT cell viability assay; assay type: cell-based, mouse; settings: for CT50, Compound + colistin / CT50, Compound alone: 4T1 cells, 18 h, concentration giving 50% cell viability; for CT50, Compound + colistin: with 1 μg/mL colistin; for CT50, Compound alone: without colistin
Description: MTT Cell Viability Assay. 4T1 cells (ATCC Manassas, Va.) were plated at a density of 1×10^4 cells/well in 96-well plates. (Roswell Park Memorial Institute Media 1640, Gibco, Gaithersburg, Md.) supplemented with 10% Fetal Bovine Serum (Gibco), 2 mM GlutaMAX (Gibco) and 50 μM 2-mercaptoethanol (Sigma Aldrich St. Louis, Mo.) and incubated at 37° C. under a 5% CO2 atmosphere in the dark for 18 h. Cell cultures were treated with serial dilutions of compounds in the presence or absence of 1 μg/mL colistin (3 replicates per condition) and incubated for an additional 18 hours. The following control conditions were used: media only (blank), 1% Triton X100 (0% cell viability), 0.5% DMSO (100% cell viability). Each condition was then treated with 10% volume of a 5 mg/mL solution of 3-(4,5-dimethylthiazol-2-yl)-2,5-diphenyltetrazolium bromide (MTT) (Sigma Aldrich) in sterile filtered 1× phosphate buffered saline (PBS) and incubated for 2 h. at 37° C. in 5% CO2, after which the media was aspirated and the resulting formazan crystals were resuspended in 100 μL acidified (4 mM HCl) isopropanol. The 96-well plate was then read at 540 nm on a FLUOstar Optima (BMG Labtech Cary, N.C.) microplate reader. Cell viability was calculated as a percentage using the two previously mentioned controls.

[8] = test system: chromosomally colistin resistant K. pneumoniae and A. baumannii strains; test: Colistin potentiation stated for the four chromosomally colistin resistant strains together; assay type: cell-based
Description: as §1

[9] = test system: A. baumannii 17978 +mcr-1; test: Colistin potentiation with detergent (Tween 80); assay type: cell-based; settings: adjuvant at 30 μM; 0.01% Tween 80
Description: Broth microdilution method for antibiotic potentiation with detergent.

[10] = test system: red blood cells; test: Hemolysis assay; assay type: cell-based, sheep
Description: Hemolysis assay. Hemolysis assays were performed on mechanically defibrinated sheep blood (Hemostat Labs: DSB30). Defibrinated blood (1.5 mL) was placed into a microcentrifuge tube and centrifuged for 10 min at 10,000 rpm. The supernatant was then removed, and the cells were resuspended in 1 mL of phosphate-buffered saline (PBS). The suspension was centrifuged, the supernatant was removed, and cells were resuspended two additional times. The final cell suspension was then diluted 10-fold. Test compound solutions were made in PBS in small culture tubes and then added to aliquots of the 10-fold suspension dilution of blood. PBS was used as a negative control and a zero hemolysis marker. Triton X (a 1% sample) was used as a positive control serving as the 100% lysis marker. Samples were then placed in an incubator at 37° C. while being shaken at 200 rpm for one hour. After one hour, the samples were transferred to microcentrifuge tubes and centrifuged for 10 min at 10,000 rpm. The resulting supernatant was diluted by a factor of 40 in distilled water. The absorbance of the supernatant was then measured with a UV spectrometer at a 540 nm wavelength.

[11] = test system: A. baumannii 4106 infection in G. mellonella larvae; test: Galleria mellonella model of A. baumannii infection; assay type: in vivo; settings: 6×10^5 CFU A. baumannii 4106, day 4
Description: Galleria mellonella Assay. G. mellonella larvae (Speedy Worm, Alexandria, Minn.) were used within 10 days of shipment from the vendor. After reception of worms, larvae were kept in the dark at room temperature for at least 24 h. before infection. Larvae weighing between 200 to 300 mg were used in the survival assay. Using a 10 μL glass syringe (Hamilton, Reno, Nev.) fitted with a 30 G needle (Exel International, St. Petersburg, Fla.), a 5 μL solution of the desired compound(s) and concentration(s) were injected into the last left proleg. Colistin was dosed at 50 mg/kg dissolved in DI water, 2-AIs at 50 mg/kg dissolved in DMSO, tigecycline at 100 mg/kg dissolved in DMSO, and DMSO was injected for a negative control. For bacterial injections, 1 mL from an overnight culture of A. baumannii 4106 in Miller LB broth (Fisher Scientific U.S.) was subcultured into 9 mL Miller LB broth and incubated for an additional 3 h before use. The 10 mL solution was centrifuged and washed three times with phosphate buffer solution (PBS, Fisher Scientific U.S.) before diluting to 6×10^5 CFUs in PBS. Then, 2.5 h. after the first injection, a second 5 μL injection containing 6×10^5 CFUs of A. baumannii 4106 was injected into the second to last left proleg. Injected worms were left at room temperature in the dark while being assessed at 24 h intervals over 4 days. […] Experiment was repeated 3 times using 10 larvae per experimental group. No ethics approval was needed for G. mellonella.

[12] = test system: A. baumannii 4106; test: In vitro MIC of tigecycline; assay type: cell-based; settings: Acinetobacter baumannii
Description: Broth microdilution method for MIC determination. […] Aliquots (1 mL) were placed in culture tubes and compound was added from 10 mM stock samples in DMSO, such that compound concentration equaled highest concentration tested (200 μM). Samples were then aliquoted (200 μL) into the first wells of a 96-well plate, with all remaining wells being filled with 100 μL of initial bacterial subculture. Row one wells were mixed five times, before 100 μL was transferred to row two. […] This process was repeated until the final row had been mixed; this served to serially dilute the compound.

[13] = adjuvant at 7.5 μM, K. pneumoniae B9
[14] = adjuvant at 10 μM, K. pneumoniae B9
[15] = adjuvant at 15 μM, K. pneumoniae B9
[16] = adjuvant at 15 μM, susceptibility breakpoint 2 μg/mL
[17] = adjuvant at 5 μM, K. pneumoniae B9

Compound: O=C(NCCc1c[nH]c2ccccc12)c1ccc(Cl)c(Cl)c1 [Compound 1d, N-(2-(1H-indol-3-yl)ethyl)-3,4-dichlorobenzamide]
colistin MIC with adjuvant, all three mcr-1 strains ([1]; adjuvant at 50 μM): 2 µg/mL
fold reduction of colistin MIC, all mcr-1 containing strains ([1]; adjuvant at 50 μM): 4-8 fold

Compound: O=C(NCCc1c[nH]c2ccccc12)c1cc(Cl)c(Cl)[nH]1 [Compound 2]
ability to potentiate colistin activity [2]: demonstrated the ability to potentiate colistin activity

Compound: CC(C)n1cc(-c2cccc(NC(=O)Nc3cc(Br)cc(Br)c3)c2)nc1N [Compound 3]
ability to potentiate colistin activity [2]: demonstrated the ability to potentiate colistin activity

Compound: CCNc1nccc(-c2c[nH]c3ccc(Br)cc23)n1 [Compound 4]
ability to potentiate colistin activity [2]: demonstrated the ability to potentiate colistin activity

Compound: O=C(NCCc1c[nH]c2ccccc12)Nc1cc(Br)cc(Br)c1 [Compound 8b, 1-(2-(1H-indol-3-yl)ethyl)-3-(3,5-dibromophenyl)urea]
colistin MIC with adjuvant [3, 13]: 4 µg/mL
colistin MIC with adjuvant ([3]; adjuvant at 8 μM, K. pneumoniae B9): 32 µg/mL
colistin MIC with adjuvant [3, 14]: 1 µg/mL
colistin MIC with adjuvant [3, 15]: 0.5 µg/mL
colistin MIC with adjuvant ([4]; adjuvant at 10 μM): 8 µg/mL
colistin MIC with adjuvant ([4]; adjuvant at 15 μM): 4 µg/mL
colistin MIC with adjuvant ([4]; adjuvant at 20 μM): 2 µg/mL
colistin MIC with adjuvant ([5]; adjuvant at 10 μM): 16 µg/mL
colistin MIC with adjuvant ([5]; adjuvant at 15 μM): 8 µg/mL
colistin MIC with adjuvant ([5]; adjuvant at 20 μM): 8 µg/mL
colistin MIC with adjuvant ([6]; adjuvant at 10 μM): 8 µg/mL
colistin MIC with adjuvant ([6]; adjuvant at 15 μM): 4 µg/mL
colistin MIC with adjuvant ([6]; adjuvant at 20 μM): 4 µg/mL
CT50, Compound + colistin [7]: 64.2 µM
CT50, Compound alone [7]: 86.2 µM
colistin MIC with adjuvant, all three mcr-1 strains [1, 16]: lowered the colistin MIC to the susceptibility breakpoint

Compound: O=C(NCCc1c[nH]c2ccccc12)Nc1cc(C(F)(F)F)cc(C(F)(F)F)c1 [Compound 8c, 1-(2-(1H-indol-3-yl)ethyl)-3-(3,5-bis(trifluoromethyl)phenyl)urea]
CT50, Compound + colistin [7]: 61.8 µM
CT50, Compound alone [7]: 60.5 µM
colistin MIC with adjuvant, all three mcr-1 strains [1, 16]: lowered the colistin MIC to the susceptibility breakpoint

Compound: O=C(NCCc1c[nH]c2ccccc12)Nc1ccc(Cl)c(Cl)c1 [Compound 8d, 1-(2-(1H-indol-3-yl)ethyl)-3-(3,4-dichlorophenyl)urea]
CT50, Compound + colistin [7]: 104.8 µM
CT50, Compound alone [7]: 117.3 µM

Compound: O=C(NCCc1c[nH]c2ccccc12)Nc1cc(Cl)c(Br)c(Cl)c1 [Compound 8e, 1-(2-(1H-indol-3-yl)ethyl)-3-(4-bromo-3,5-dichlorophenyl)urea]
colistin MIC with adjuvant, all three mcr-1 strains [1, 16]: lowered the colistin MIC to the susceptibility breakpoint

colistin MIC with adjuvant [3, 17]: 8 µg/mL
colistin MIC with adjuvant [3, 13]: 2 µg/mL
colistin MIC with adjuvant [3, 14]: 1 µg/mL
colistin MIC with adjuvant [3, 15]: 0.5 µg/mL
colistin MIC with adjuvant ([4]; adjuvant at 10 μM): 4 µg/mL
colistin MIC with adjuvant ([4]; adjuvant at 15 μM): 2 µg/mL
colistin MIC with adjuvant ([4]; adjuvant at 20 μM): 1 µg/mL
colistin MIC with adjuvant ([5]; adjuvant at 10 μM): 8 µg/mL
colistin MIC with adjuvant ([5]; adjuvant at 15 μM): 4 µg/mL
colistin MIC with adjuvant ([5]; adjuvant at 20 μM): 2 µg/mL
colistin MIC with adjuvant ([6]; adjuvant at 10 μM): 4 µg/mL
colistin MIC with adjuvant ([6]; adjuvant at 15 μM): 2 µg/mL
colistin MIC with adjuvant ([6]; adjuvant at 20 μM): 2 µg/mL
Compound: O=C(NCCc1c[nH]c2ccc(Br)cc12)Nc1ccc(Cl)c(Cl)c1 [Compound 9d, 1-(2-(5-bromo-1H-indol-3-yl)ethyl)-3-(3,4-dichlorophenyl)urea]
CT50, Compound + colistin [7]: 84.6 µM
CT50, Compound alone [7]: 125.5 µM

Compound: O=C(NCCc1c[nH]c2ccc(Br)cc12)Nc1cc(Cl)c(Br)c(Cl)c1 [Compound 9e, 1-(2-(5-bromo-1H-indol-3-yl)ethyl)-3-(4-bromo-3,5-dichlorophenyl)urea]
colistin MIC with adjuvant [3, 17]: 0.5 µg/mL
fold reduction of colistin MIC ([3]; adjuvant at 5 μM, a chromosomally resistant K. pneumoniae strain (MIC 512 to 0.5 μg/mL)): 1024 fold
fold reduction of colistin MIC [3, 14]: > 2000 fold
colistin MIC with adjuvant ([4]; adjuvant at 7.5 μM): 2 µg/mL
colistin MIC with adjuvant ([4]; adjuvant at 8 μM): 2 µg/mL
colistin MIC with adjuvant ([4]; adjuvant at 10 μM): 1 µg/mL
colistin MIC with adjuvant ([4]; adjuvant at 15 μM): 0.5 µg/mL
colistin MIC with adjuvant ([4]; adjuvant at 20 μM): 0.5 µg/mL
colistin MIC with adjuvant ([5]; adjuvant at 7.5 μM): 16 µg/mL
colistin MIC with adjuvant ([5]; adjuvant at 10 μM): 4 µg/mL
colistin MIC with adjuvant ([5]; adjuvant at 15 μM): 4 µg/mL
colistin MIC with adjuvant ([5]; adjuvant at 20 μM): 2 µg/mL
colistin MIC with adjuvant ([6]; adjuvant at 7.5 μM): 1 µg/mL
colistin MIC with adjuvant ([6]; adjuvant at 8 μM): 4 µg/mL
colistin MIC with adjuvant ([6]; adjuvant at 10 μM): 1 µg/mL
fold reduction of colistin MIC ([6]; adjuvant at 10 μM): > 2000 fold
colistin MIC with adjuvant ([6]; adjuvant at 15 μM): 0.5 µg/mL
colistin MIC with adjuvant ([6]; adjuvant at 20 μM): 0.5 µg/mL
resensitization to breakpoint colistin levels, chromosomally resistant strains ([8]; adjuvant at 7.5 μM): resensitized three out of four chromosomally resistant strains; also recorded: resensitized three out of the four strains to breakpoint colistin levels
colistin MIC with adjuvant, all four chromosomally colistin resistant strains (CLSI breakpoint) ([8]; adjuvant at 20 μM): < 2 µg/mL
colistin sensitization activity in absence and presence of Tween 80 [9]: equipotent colistin sensitization activity in the absence and presence of Tween 80
toxicity to red blood cells [10]: generally non-toxic
toxicity to the 4T1 cell line [7]: generally non-toxic
CT50, Compound + colistin [7]: 64.9 µM
CT50, Compound alone [7]: 94.1 µM
survival of inoculated worms after 4 days, combination with colistin ([11]; 50 mg/kg compound paired with 50 mg/kg colistin): 47%
survival of inoculated worms after 4 days, monotherapy ([11]; 50 mg/kg): 0%
resensitization to colistin, all three mcr-1 containing strains ([1]; adjuvant at 5 μM): resensitized all three mcr-1 containing bacterial strains to colistin
colistin MIC with adjuvant, all three mcr-1 strains [1, 16]: lowered the colistin MIC to the susceptibility breakpoint

Compound: CC(C)n1cc(-c2cccc(NC(=O)Nc3cc(Cl)c(Br)c(Cl)c3)c2)nc1N [Compound 14, reference compound]
CT50, Compound + colistin [7]: 15.6 µM
CT50, Compound alone [7]: 23.2 µM

Compound: CN(C)c1cc(NC(=O)CNC(C)(C)C)c(O)c2c1C[C@H]1C[C@H]3[C@H](N(C)C)C(O)=C(C(N)=O)C(=O)[C@@]3(O)C(O)=C1C2=O [tigecycline, reference compound]
survival of inoculated worms after 4 days, monotherapy ([11]; 100 mg/kg): 20%
MIC [12]: 8 µg/mL
